Test results published in US4203989A, “Anti-diarrheal diaryl-(1-azabicyclo(2.2.2)octan-2-yl)-alkanols and related compounds” (G. D. Searle & Co., priority 1979, dated 1980).

Tested on: gastrointestinal motility
Assay: Mouse Cecal Test (inhibition of gastrointestinal motility, charcoal in cecum)
Assay type: in vivo, mouse (male Charles River mice)
Details: IG (oral), 30 min before oral charcoal, cecum examined 3.5 h after charcoal, all-or-none, logistic method of Berkson, read-out: ED50 ± S.E. (median effective dose)
Procedure: The method used for this assay is a modification of the techniques previously described by Macht and Barb-Gose, J. Amer. Pharm. Ass., 20, 558 (1931), and Janssen and Jageneau, J. Pharm. Pharmacol., 9, 381 (1957). Details are as follows:
A group of six, male Charles River mice weighing 20-25 g. which have been previously fasted for 24 hours are pretreated with the test compounds administered orally as a solution in water or suspended in 0.5% methyl cellulose. A constant volume of 10 ml./kg. is employed. Thirty minutes following administration of the test compounds, the animals are given a single oral dose of charcoal which consists of 0.2 ml. per mouse of 10% charcoal suspended in 1.0% methyl cellulose. Three and a half hours after charcoal administration, the animals are sacrificed and the cecum examined for the absence or presence of charcoal on an all-or-none basis.
The median effective dose (ED50) is then calculated for each compound using the logistic method of Berkson (1953).

| Compound | ED50 [mg/kg] |
| --- | --- |
| Cl.OCCC(CC1CC2CCN1CC2)(c1ccccc1)c1ccccc1 (centres unmarked) [gamma, gamma-diphenyl-1-azabicyclo[2.2.2]octane-2-butanol hydrochloride] | 1.2 ± 0.25 |
| OCCC(CC1CC2CCN1CC2)(c1ccccc1)c1ccccc1 (centres unmarked) [Gamma, gamma-diphenyl-1-azabicyclo[2.2.2]octane-2-butanol] | 6.39 ± 2.09 |
| CC(C)(O)C(CC1CC2CCN1CC2)(c1ccccc1)c1ccccc1 (stereo not drawn) [Alpha, alpha-dimethyl-beta, beta-diphenyl-1-azabicyclo [2.2.2]octane-2-propanol] | 1.6 ± 0.28 |
| Cl.OC1(C(CC2CC3CCN2CC3)(c2ccccc2)c2ccccc2)CCCC1 (centres unmarked) [1-[2-(1-azabicyclo[2.2.2]octan-2-yl)-1,1-diphenylethyl] cyclopentanol hydrochloride] | 1.78 ± 0.83 |
| OC1(C(CC2CC3CCN2CC3)(c2ccccc2)c2ccccc2)CCCC1 (centres unmarked) [1-[2-(1-azabicyclo[2.2.2]octan-2-yl)-1,1-diphenylethyl] cyclopentanol] | 7.61 ± 2.23 |
